Experimental findings from patent US20050118287A1, “Use of a vanilloid as an anti-snoring element” (LMD, priority 2002, published 2005) are described below.

The test concerns snoring. The test is described as follows: Activity of the shogaol on snoring in a panel of men and women. In kind it is in vivo. The conditions noted are these: daily doses corresponding to 20 mg of shogaol. As for the experimental part:
Daily doses corresponding to 20 mg of shogaol taken in the form of an extract according to example 1 or 2 or of pure shogaol according to example 3 were administered to a panel of men and women. The effects manifest themselves after 48 hours of treatment and persist for 48 hours after stopping the latter. […] Without being bound by theory, it appears that the effect of this molecule and of other vanilloids should be linked to their involvement in emission by certain nociceptive neurons of a neurotransmitter, substance P.

On to shogaol, for which the “persistence of the effects after stopping treatment” value is 48 h and the “time of treatment after which the effects manifest themselves” value is 48 h. Also, the “effect on snoring in the user” value (taken as extract according to example 1 or 2 or pure shogaol according to example 3) was “considerably reduces snoring”.
